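Grown in 96-well plates, cells were treated for 48 hours with each compound at five concentrations. Insufficient inhibition: endpoint recorded as highest concentration tested. Here, GI50 denotes the concentration required for 50% inhibition of growth.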 Activity calls are given as the source filed them. Rule as the data show it: active = GI50 up to about 1.1 µM and inactive = higher.
Experiments:
Experiment in all cases: growth of human tumour cells (NCI), 48 h
CCRF-CEM = test system: CCRF-CEM
HCT-116 = test system: HCT-116
HOP-62 = test system: HOP-62
IGROV-1 = test system: IGROV-1
M19-MEL = test system: M19-MEL
NCI-H460 = test system: NCI-H460
OVCAR-3 = test system: OVCAR-3
OVCAR-4 = test system: OVCAR-4
OVCAR-5 = test system: OVCAR-5
RPMI-8226 = test system: RPMI-8226
SF-539 = test system: SF-539
SK-MEL-2 = test system: SK-MEL-2
SNB-75 = test system: SNB-75
SW-620 = test system: SW-620
UACC-257 = test system: UACC-257
UO-31 = test system: UO-31

Measured: GI50

CC12C=C[C@]3(CC[C@@H]4[C@@](C)(CO)CCC[C@]4(C)C3CC1)C2 (some centres not stated)
inactive: CCRF-CEM 19.9 µM | HCT-116 17.9 µM | HOP-62 14.6 µM | IGROV-1 17.5 µM | M19-MEL 19.2 µM | NCI-H460 21 µM | OVCAR-3 18.2 µM | OVCAR-4 13.6 µM | OVCAR-5 6.01 µM | RPMI-8226 17.9 µM | SF-539 16.4 µM | SK-MEL-2 17.3 µM | SNB-75 > 10 µM | SW-620 17.6 µM | UACC-257 18.5 µM | UO-31 17.8 µM

Nc1ccc(/C=C/c2ccnc3ccccc23)cc1
inactive: CCRF-CEM 12.1 µM | HCT-116 17.5 µM | HOP-62 15.3 µM | IGROV-1 28.2 µM | M19-MEL 31 µM | NCI-H460 16.1 µM | OVCAR-3 15 µM | OVCAR-4 30 µM | OVCAR-5 19.6 µM | RPMI-8226 15.6 µM | SF-539 20 µM | SK-MEL-2 17.7 µM | SNB-75 15.9 µM | SW-620 24.7 µM | UACC-257 22.2 µM | UO-31 16.5 µM

N#CCC(=O)Nc1ccccc1O
inactive: CCRF-CEM > 100 µM | HCT-116 > 100 µM | HOP-62 > 100 µM | IGROV-1 > 100 µM | M19-MEL > 100 µM | NCI-H460 > 100 µM | OVCAR-3 > 100 µM | OVCAR-4 > 100 µM | OVCAR-5 > 100 µM | RPMI-8226 > 100 µM | SF-539 > 100 µM | SK-MEL-2 > 100 µM | SNB-75 > 100 µM | SW-620 > 100 µM | UACC-257 > 100 µM | UO-31 > 100 µM

CCCCCN(CCCCC)C(=O)[C@H](CCC(=O)O)NC(=O)c1cc2ccccc2[nH]1
inactive: CCRF-CEM 33.4 µM | HCT-116 28.3 µM | HOP-62 56 µM | IGROV-1 45.4 µM | M19-MEL 45.5 µM | NCI-H460 39.3 µM | OVCAR-3 42.7 µM | OVCAR-4 61 µM | OVCAR-5 > 100 µM | RPMI-8226 21.8 µM | SF-539 41.2 µM | SK-MEL-2 41.9 µM | SNB-75 32.7 µM | SW-620 > 100 µM | UACC-257 > 100 µM | UO-31 31 µM

CC1=NN(C(=O)CC(=O)NC(=O)CC(=O)Nc2ccccc2F)C(=O)C1/N=N/c1ccc([N+](=O)[O-])cc1 (configuration not stated)
inactive: CCRF-CEM 33.3 µM | HCT-116 21 µM | HOP-62 56.5 µM | IGROV-1 52 µM | M19-MEL 30.3 µM | NCI-H460 37.1 µM | OVCAR-3 28.6 µM | OVCAR-4 29.9 µM | OVCAR-5 97.7 µM | RPMI-8226 22.6 µM | SF-539 > 100 µM | SK-MEL-2 > 100 µM | SNB-75 34.2 µM | SW-620 20 µM | UACC-257 29.6 µM | UO-31 26.7 µM

CC1=C(C(=O)Nc2ccc(Cl)c(Cl)c2)C(c2ccco2)C(C(=O)Nc2ccc(Cl)c(Cl)c2)=C(C)N1
inactive: CCRF-CEM 6.58 µM | HCT-116 9.84 µM | HOP-62 14 µM | IGROV-1 14.3 µM | M19-MEL 11.8 µM | NCI-H460 13.7 µM | OVCAR-3 7.98 µM | OVCAR-4 12.1 µM | OVCAR-5 15.1 µM | RPMI-8226 7.16 µM | SF-539 13.8 µM | SK-MEL-2 12.4 µM | SNB-75 13.9 µM | SW-620 14.6 µM | UACC-257 14.7 µM | UO-31 10.1 µM

COC1OC(C)C(OCc2ccccc2)C(OS(=O)(=O)c2ccc(C)cc2)C1OS(=O)(=O)c1ccc(C)cc1 (configuration not stated)
inactive: CCRF-CEM > 100 µM | HCT-116 > 100 µM | HOP-62 > 100 µM | IGROV-1 > 100 µM | M19-MEL > 100 µM | NCI-H460 > 100 µM | OVCAR-3 > 100 µM | OVCAR-4 > 100 µM | OVCAR-5 > 100 µM | RPMI-8226 > 100 µM | SF-539 > 100 µM | SK-MEL-2 > 100 µM | SNB-75 > 100 µM | SW-620 > 100 µM | UACC-257 > 100 µM | UO-31 > 100 µM
